Source: US20020106657A1, “Genetic test to determine non-responsiveness to statin drug treatment” (priority 1999, published 2002)
Where “and” joins values, the source holds several entries; their conditions need not be identical. Equal entries are not always repeated. Where two headings read alike, the source gives them in different places.

How the values were obtained:
CABG patients = assay: Post-CABG Trial: serum lipid levels and lovastatin dose needed, by treatment group or LPL HindIII genotype; type: in vivo, human
Procedure: (§1) Participants were randomly assigned, following a two by two design, to receive 1) lovastatin therapy to lower the LDL-cholesterol level to within the range of 93-97 mg/dl (aggressive treatment group) or 132-136 mg/dl (moderate treatment group), and 2) placebo or low-dose warfarin (Post-CABG, 1997). Coronary angiograms of 1351 subjects at enrollment and an average of 4.3 years later were compared using a quantitative assessment of the severity of graft stenosis. Graft worsening was defined as a decrease in lumen diameter of 0.6mm or more. The percentage of subjects with worsening of one or more grafts was 39% in the aggressive treatment group compared to 51% in the moderate treatment group (p<0.00 1) and the mean percentage of grafts per patient showing worsening was 27% in the aggressive treatment group compared to 39% in the moderate treatment group (p<0.001).
(§2) A total of 1351 subjects from seven clinical centers throughout North America were included in the clinical trial and all were eligible as participants. Genetic material was received from 891 subjects who were included in this ancillary study. Inclusion criteria for the clinical trial were: bypass surgery 1 -11 years prior to the study; an LDL-cholesterol level of 130-175 mg/dl; and at least one patent vein graft as determined by angiography. Subjects were excluded if there was: (a) the likelihood of revascularization or death within the study period of 5 years; (b) unstable angina or myocardial infarction within six months before the start of the trial; (c) severe angina; (d) heart failure; or (e) contraindications to the study medications. Id. Subjects were randomly assigned in a two by two factorial design for treatment to lower LDL-cholesterol levels aggressively (target LDL 93-97 mg/dl) or moderately (target LDL 132-136 mg/dl) with lovastatin and cholestyramine if needed, and for treatment with either placebo or warfarin sufficient to maintain an international normalized ratio of less than 2. Id. Graft worsening was determined by comparing the initial angiogram at enrollment with a follow-up angiogram repeated an average of 4.3 years later. “Worsening” was defined as a reduction in diameter ≧0.6mm in diameter. “Subjects with worsening” were defined as those subjects with one or more grafts showing worsening.
(§3) Differences in baseline characteristics between treatment groups and between genotype groups were tested by one-way analysis of variance or Chi-square tests. Log-transformed HDL and TG values were used to perform all statistical analyses in order to adjust for their skewed distributions, but are presented in the tables as untransformed means ±SE. The association between graft worsening and LPL genotype was tested by Chi-square test. Mantel-Haenszel statistics were used for testing the interactions between genotypes and treatment groups. The proportion of grafts showing worsening per subject was used as the quantitative measurement of graft worsening, and multiple regression was performed to for this proportion as a function of genotype and treatment group to identify predictors. Adjusted variables for this trait included age, gender, body mass index, smoking status, number of years since CABG, systolic and diastolic blood pressure, current medicine use, and family history as listed in Table 1. All statistical analyses were carried out with SAS software (version 6.12, SAS Institute, Cary, N.C.).
To investigate potential mechanisms for the association between the LPL HindIII 2/2 genotype and graft worsening, baseline characteristics and response of the subjects to the lipid-lowering action of lovastatin were compared between subjects (Table 3). There were no differences observed between the baseline values for total cholesterol, HDL-cholesterol, and triglycerides. However, a small difference in LDL-cholesterol was observed, 159.6±2.1 mg/dl for subjects with HindIII 2/2 compared with 155.0±0.7 for 1/1 and 1/2, p=0.04. […]

[1] = tested on: CABG patients (saphenous-vein coronary-artery bypass grafts); assay: Post-CABG Trial: angiographic graft worsening under lovastatin (aggressive vs moderate) and warfarin; type: in vivo, human
Procedure: A genetic association study was conducted by a within-case comparison ancillary to the Post Coronary Artery Bypass Graft Trial. (The Post Coronary Artery Bypass Graft Trial Investigators. The effect of aggressive lowering of low-density lipoprotein cholesterol levels and low-dose anticoagulation on obstructive changes in saphenous-vein coronary-artery bypass grafts, N. Engl. J. Med. 336:153-62 [1997]). A two stage design was followed. First, EBV-transformed lymphoblastoid cell lines were established for subjects from the Los Angeles (L.A.) cohort providing a permanent source of DNA for testing hypotheses related to atherosclerosis-related candidate genes. Then, significant results were tested in a second stage by genotyping all available subjects in the post-CABG trial using DNA isolated from whole blood shipped to Cedars-Sinai Medical Center from the other participating centers.
as §1, §2
as §3, with “Adjusted variables for this trait included age, gender, body mass index, smoking status, number of years since CABG, systolic and diastolic blood pressure, current medicine use, and family history as listed in Table 1. All statistical analyses were carried out with SAS software (version 6.12, SAS Institute, Cary, N.C.).” left out

[2] = tested on: CABG patients (saphenous-vein coronary-artery bypass grafts); conditions: cited from earlier work; for percentage of subjects with worsening of one or more grafts: 1351 subjects, average 4.3 years
[3] = Aggressive treatment group (N = 430), mean ± SE
[4] = LPL HindIII 1/1 & 1/2 genotype (N = 817)
[5] = LPL HindIII 2/2 genotype (N = 74)
[6] = Moderate treatment group (N = 406), mean ± SE

## CC[C@H](C)C(=O)O[C@H]1C[C@@H](C)C=C2C=C[C@H](C)[C@H](CC[C@@H]3C[C@@H](O)CC(=O)O3)[C@H]21 [lovastatin]
CABG patients; [3]
  Steady state lipid levels: HDL cholesterol: 44.9 ± 0.6 mg/dL
  Steady state lipid levels: LDL cholesterol: 97.1 ± 1.3 mg/dL
  Steady state lipid levels: Total cholesterol: 172.6 ± 1.6 mg/dL
  Steady state lipid levels: Triglycerides: 157.4 ± 4.5 mg/dL
CABG patients; [4]
  Lipid change: HDL cholesterol: 14.2 ± 1.0%
  Lipid change: LDL cholesterol: 45.1 ± 1.5%
  Lipid change: Total cholesterol: 15.2 ± 0.6%
  Lipid change: Triglycerides: 8.2 ± 2.0%
  Steady state lipid levels: HDL cholesterol: 44.1 ± 0.4 mg/dL
  Steady state lipid levels: LDL cholesterol: 114.7 ± 1.1 mg/dL
  Steady state lipid levels: Total cholesterol: 191.0 ± 1.3 mg/dL
  Steady state lipid levels: Triglycerides: 163.6 ± 3.4 mg/dL
CABG patients; [5]
  Lipid change: HDL cholesterol: 14.1 ± 3.1%
  Lipid change: LDL cholesterol: 53.5 ± 6.9%
  Lipid change: Total cholesterol: 16.9 ± 2.0%
  Lipid change: Triglycerides: 6.0 ± 5.8%
  Steady state lipid levels: HDL cholesterol: 46.7 ± 1.6 mg/dL
  Steady state lipid levels: LDL cholesterol: 115.1 ± 4.3 mg/dL
  Steady state lipid levels: Total cholesterol: 191.1 ± 4.8 mg/dL
  Steady state lipid levels: Triglycerides: 151.0 ± 9.6 mg/dL
CABG patients; [6]
  Steady state lipid levels: HDL cholesterol: 43.7 ± 0.6 mg/dL
  Steady state lipid levels: LDL cholesterol: 133.0 ± 1.3 mg/dL
  Steady state lipid levels: Total cholesterol: 209.5 ± 1.6 mg/dL
  Steady state lipid levels: Triglycerides: 164.5 ± 4.4 mg/dL
[1]; HindIII 1/1 and 1/2 genotype, moderate drug treatment group
  percent of subjects with graft worsening: 49%
[1]; HindIII 1/1 or 1/2 genotype, aggressive lipid-lowering treatment group
  percent of subjects with graft worsening: 35%
[1]; HindIII 2/2 genotype, aggressive treatment group
  percent of subjects with graft worsening: 54%
[1]; HindIII 2/2 genotype, moderate lipid-lowering treatment group
  percent of subjects with graft worsening: 65%
[1]; HindIII 2/2 plus moderate lipid-lowering, 95% CI 1.4-8.7
  odds ratio for graft worsening, combined unfavorable LPL HindIII genotype with moderate drug treatment: 3.5
[1]; adjusted for / stratified by LPL HindIII genotype, 95% CI 1.32-2.4
  odds ratio, effect of treatment on graft worsening: 1.78 and 1.8
[1]; within LPL HindIII 1/1 and 1/2 genotype group, 95% CI 1.3 to 2.4
  odds ratio for graft worsening, moderate vs aggressive drug treatment: 1.8
[2]; aggressive lovastatin treatment (LDL-C lowered to 93-97 mg/dl)
  percentage of patients with atherosclerotic worsening of grafts within 4 years: 39%
[2]; aggressive treatment group, worsening = lumen diameter decrease 0.6 mm or more
  percentage of subjects with worsening of one or more grafts: 39%
[2]; aggressive treatment group
  mean percentage of grafts per patient showing worsening: 27%
[2]; aggressive vs moderate lovastatin treatment group
  number of patients who required a second CABG procedure, lower than in moderate-treatment group: 29%
[2]; moderate lovastatin treatment (LDL-C lowered to 132-136 mg/dl)
  percentage of patients with atherosclerotic worsening of grafts within 4 years: 51%
[2]; moderate treatment group
  percentage of subjects with worsening of one or more grafts: 51%
  mean percentage of grafts per patient showing worsening: 39%

## CC(=O)CC(c1ccccc1)c1c(O)c2ccccc2oc1=O (stereo not drawn) [warfarin]
[2]; low-dose warfarin vs placebo
  effect of the warfarin treatment on graft worsening: No effect
